# Data as given in patent US10870647B2, “Imidazopyridine derivative, method for preparing same, and pharmaceutical composition containing same as active ingredient for preventing or treating cancer” (DAEGU-GYEONGBUK MEDICAL INNOVATION FOUNDATION, priority 2016, dated 2020).
# What was measured:
# Test in all cases: Kinase selectivity, scanMAX Kinase assay panel (DiscoverX), % control at 1 uM
# Assay type in all cases: binding
# [1] = molecular target: T1, scanMAX Kinase assay panel (Homo sapiens, UniProt P42680); settings: TEC; 1 uM; read-out: Percent Control (%)
# T1 construct: purchased DiscoverX
# T1 sequence (P42680 1-631): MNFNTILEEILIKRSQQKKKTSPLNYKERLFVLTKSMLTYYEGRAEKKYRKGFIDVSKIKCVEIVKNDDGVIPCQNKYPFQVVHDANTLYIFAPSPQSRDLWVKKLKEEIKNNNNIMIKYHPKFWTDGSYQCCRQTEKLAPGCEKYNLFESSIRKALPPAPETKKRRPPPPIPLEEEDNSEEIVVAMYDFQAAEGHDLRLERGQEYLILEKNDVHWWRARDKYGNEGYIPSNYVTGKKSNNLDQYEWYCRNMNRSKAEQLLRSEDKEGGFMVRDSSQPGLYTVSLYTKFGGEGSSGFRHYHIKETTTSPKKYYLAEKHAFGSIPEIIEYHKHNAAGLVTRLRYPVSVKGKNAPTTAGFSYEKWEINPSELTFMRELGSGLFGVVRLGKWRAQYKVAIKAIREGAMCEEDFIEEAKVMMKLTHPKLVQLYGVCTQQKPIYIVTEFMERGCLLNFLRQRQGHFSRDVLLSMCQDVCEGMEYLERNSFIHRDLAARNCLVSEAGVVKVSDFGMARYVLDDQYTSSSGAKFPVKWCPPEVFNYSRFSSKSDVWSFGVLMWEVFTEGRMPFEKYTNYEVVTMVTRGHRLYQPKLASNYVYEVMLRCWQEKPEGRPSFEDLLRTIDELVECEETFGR
# Procedure, shortened: (§1)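 Each kinase was first exposed to the test compound at 1 uM in DMSO. Signal was then normalised to positive and negative controls to give % control. Finally, any enzyme showing <35% control was judged inhibited.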
# [2] = molecular target: T2, scanMAX Kinase assay panel (Homo sapiens, UniProt Q15746); settings: MYLK; 1 uM; read-out: Percent Control (%)
# T2 construct: purchased DiscoverX
# Procedure, shortened: as §1
# [3] = molecular target: T3, scanMAX Kinase assay panel (Homo sapiens, UniProt P19525); settings: PRKR; 1 uM; read-out: Percent Control (%)
# T3 construct: purchased DiscoverX
# Procedure, shortened: as §1
# [4] = molecular target: T4, scanMAX Kinase assay panel (Homo sapiens, UniProt P10721, D816H); settings: KIT (D816H); 1 uM; read-out: Percent Control (%)
# T4 construct: purchased DiscoverX
# Procedure, shortened: as §1
# [5] = molecular target: T5, scanMAX Kinase assay panel (Homo sapiens, UniProt O95835); settings: LATS1; 1 uM; read-out: Percent Control (%)
# T5 construct: purchased DiscoverX
# T5 sequence (O95835 1-1130): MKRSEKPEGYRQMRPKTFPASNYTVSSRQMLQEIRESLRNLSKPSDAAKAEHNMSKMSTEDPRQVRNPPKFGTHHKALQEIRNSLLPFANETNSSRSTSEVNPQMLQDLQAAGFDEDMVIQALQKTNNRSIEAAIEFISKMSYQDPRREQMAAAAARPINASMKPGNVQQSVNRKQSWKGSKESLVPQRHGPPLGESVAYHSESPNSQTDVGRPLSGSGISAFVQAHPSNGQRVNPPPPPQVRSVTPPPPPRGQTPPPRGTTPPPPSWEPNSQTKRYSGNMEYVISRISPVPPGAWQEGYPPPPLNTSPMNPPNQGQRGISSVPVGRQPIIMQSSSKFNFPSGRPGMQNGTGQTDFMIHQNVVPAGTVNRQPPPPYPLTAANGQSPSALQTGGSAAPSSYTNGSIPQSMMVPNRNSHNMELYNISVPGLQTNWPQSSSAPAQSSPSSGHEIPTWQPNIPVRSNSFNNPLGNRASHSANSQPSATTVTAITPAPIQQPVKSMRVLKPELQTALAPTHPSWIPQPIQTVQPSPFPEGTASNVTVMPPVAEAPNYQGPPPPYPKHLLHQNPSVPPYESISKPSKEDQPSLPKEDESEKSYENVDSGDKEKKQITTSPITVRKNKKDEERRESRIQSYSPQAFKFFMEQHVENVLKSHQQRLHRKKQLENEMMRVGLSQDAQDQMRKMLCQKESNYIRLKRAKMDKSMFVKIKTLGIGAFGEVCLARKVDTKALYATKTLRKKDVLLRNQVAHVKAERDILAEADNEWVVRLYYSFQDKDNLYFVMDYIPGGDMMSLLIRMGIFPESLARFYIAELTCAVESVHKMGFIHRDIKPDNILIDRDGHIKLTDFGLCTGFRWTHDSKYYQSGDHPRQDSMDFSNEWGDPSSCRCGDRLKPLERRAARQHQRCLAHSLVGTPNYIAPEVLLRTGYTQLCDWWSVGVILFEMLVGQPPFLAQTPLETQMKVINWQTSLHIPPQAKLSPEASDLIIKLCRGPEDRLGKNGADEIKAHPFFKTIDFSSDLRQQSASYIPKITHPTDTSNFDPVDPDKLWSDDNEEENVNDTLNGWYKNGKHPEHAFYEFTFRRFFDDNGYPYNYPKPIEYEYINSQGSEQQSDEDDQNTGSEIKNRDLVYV
# Procedure, shortened: as §1
# [6] = molecular target: T6, scanMAX Kinase assay panel (Homo sapiens, UniProt Q16512); settings: PKN1; 1 uM; read-out: Percent Control (%)
# T6 construct: purchased DiscoverX
# Procedure, shortened: as §1
# T6 sequence (Q16512 whole entry): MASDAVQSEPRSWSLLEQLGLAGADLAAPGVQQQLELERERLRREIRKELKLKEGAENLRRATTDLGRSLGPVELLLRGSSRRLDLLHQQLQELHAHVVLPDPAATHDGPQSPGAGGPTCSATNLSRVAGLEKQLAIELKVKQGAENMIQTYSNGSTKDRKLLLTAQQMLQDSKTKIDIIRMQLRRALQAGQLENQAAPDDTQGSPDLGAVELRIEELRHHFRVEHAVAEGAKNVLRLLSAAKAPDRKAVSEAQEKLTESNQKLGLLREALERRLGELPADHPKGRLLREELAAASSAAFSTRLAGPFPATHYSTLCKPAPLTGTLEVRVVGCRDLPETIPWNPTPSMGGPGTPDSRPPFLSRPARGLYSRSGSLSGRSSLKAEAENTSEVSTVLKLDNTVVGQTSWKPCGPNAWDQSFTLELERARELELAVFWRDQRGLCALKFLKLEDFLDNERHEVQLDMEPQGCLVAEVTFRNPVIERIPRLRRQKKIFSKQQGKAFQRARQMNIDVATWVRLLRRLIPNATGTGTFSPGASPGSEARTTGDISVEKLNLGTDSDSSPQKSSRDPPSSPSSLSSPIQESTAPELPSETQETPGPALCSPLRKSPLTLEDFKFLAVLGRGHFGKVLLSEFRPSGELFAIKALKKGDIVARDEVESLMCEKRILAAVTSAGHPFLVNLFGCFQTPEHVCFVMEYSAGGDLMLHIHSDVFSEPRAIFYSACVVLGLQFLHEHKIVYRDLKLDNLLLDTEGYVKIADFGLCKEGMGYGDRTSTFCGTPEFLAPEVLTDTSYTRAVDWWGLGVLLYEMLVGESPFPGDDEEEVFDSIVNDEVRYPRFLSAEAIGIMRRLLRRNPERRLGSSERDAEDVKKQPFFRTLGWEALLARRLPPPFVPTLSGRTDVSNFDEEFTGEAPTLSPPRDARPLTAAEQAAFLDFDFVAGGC
# T3 sequence (P19525 whole entry): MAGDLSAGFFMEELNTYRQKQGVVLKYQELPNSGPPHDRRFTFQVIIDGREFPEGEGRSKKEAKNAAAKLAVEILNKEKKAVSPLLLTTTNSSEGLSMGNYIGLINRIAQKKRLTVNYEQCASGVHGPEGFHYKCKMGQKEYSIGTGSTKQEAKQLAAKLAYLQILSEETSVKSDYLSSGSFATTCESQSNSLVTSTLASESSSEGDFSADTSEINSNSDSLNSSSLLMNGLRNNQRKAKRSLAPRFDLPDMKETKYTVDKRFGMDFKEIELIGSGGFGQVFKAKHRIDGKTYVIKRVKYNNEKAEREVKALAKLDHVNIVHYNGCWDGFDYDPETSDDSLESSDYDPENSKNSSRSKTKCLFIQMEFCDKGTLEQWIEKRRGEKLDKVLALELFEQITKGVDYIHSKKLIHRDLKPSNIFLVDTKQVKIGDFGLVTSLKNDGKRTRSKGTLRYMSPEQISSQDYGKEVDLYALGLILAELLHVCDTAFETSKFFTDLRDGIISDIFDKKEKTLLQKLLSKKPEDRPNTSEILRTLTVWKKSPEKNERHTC
# T4 sequence (P10721 26-976 D816H): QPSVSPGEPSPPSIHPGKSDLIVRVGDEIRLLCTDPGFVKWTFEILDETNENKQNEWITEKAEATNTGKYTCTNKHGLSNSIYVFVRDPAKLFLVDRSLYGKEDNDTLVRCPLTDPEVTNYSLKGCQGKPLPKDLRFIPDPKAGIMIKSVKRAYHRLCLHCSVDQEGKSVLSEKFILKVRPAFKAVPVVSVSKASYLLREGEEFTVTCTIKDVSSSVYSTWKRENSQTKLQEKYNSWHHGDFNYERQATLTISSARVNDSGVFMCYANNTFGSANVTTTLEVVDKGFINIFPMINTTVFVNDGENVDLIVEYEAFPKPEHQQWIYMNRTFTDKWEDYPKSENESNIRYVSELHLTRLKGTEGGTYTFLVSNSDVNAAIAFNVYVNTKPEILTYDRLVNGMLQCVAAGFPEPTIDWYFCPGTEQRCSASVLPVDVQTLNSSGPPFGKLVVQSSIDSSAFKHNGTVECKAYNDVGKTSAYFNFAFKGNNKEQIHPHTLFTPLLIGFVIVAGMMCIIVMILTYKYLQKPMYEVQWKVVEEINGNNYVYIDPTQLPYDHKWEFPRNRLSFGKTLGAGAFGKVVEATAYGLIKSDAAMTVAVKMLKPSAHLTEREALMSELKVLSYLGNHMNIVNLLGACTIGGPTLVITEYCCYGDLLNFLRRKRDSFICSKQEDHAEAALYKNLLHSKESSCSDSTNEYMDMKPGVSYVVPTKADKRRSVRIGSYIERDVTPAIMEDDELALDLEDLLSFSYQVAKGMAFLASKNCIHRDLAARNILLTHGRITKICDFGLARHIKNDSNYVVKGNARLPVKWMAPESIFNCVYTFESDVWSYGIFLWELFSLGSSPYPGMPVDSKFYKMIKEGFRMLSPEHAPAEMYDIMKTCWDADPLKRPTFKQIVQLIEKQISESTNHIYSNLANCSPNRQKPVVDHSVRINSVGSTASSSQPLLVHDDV
# T2 sequence (Q15746 whole entry): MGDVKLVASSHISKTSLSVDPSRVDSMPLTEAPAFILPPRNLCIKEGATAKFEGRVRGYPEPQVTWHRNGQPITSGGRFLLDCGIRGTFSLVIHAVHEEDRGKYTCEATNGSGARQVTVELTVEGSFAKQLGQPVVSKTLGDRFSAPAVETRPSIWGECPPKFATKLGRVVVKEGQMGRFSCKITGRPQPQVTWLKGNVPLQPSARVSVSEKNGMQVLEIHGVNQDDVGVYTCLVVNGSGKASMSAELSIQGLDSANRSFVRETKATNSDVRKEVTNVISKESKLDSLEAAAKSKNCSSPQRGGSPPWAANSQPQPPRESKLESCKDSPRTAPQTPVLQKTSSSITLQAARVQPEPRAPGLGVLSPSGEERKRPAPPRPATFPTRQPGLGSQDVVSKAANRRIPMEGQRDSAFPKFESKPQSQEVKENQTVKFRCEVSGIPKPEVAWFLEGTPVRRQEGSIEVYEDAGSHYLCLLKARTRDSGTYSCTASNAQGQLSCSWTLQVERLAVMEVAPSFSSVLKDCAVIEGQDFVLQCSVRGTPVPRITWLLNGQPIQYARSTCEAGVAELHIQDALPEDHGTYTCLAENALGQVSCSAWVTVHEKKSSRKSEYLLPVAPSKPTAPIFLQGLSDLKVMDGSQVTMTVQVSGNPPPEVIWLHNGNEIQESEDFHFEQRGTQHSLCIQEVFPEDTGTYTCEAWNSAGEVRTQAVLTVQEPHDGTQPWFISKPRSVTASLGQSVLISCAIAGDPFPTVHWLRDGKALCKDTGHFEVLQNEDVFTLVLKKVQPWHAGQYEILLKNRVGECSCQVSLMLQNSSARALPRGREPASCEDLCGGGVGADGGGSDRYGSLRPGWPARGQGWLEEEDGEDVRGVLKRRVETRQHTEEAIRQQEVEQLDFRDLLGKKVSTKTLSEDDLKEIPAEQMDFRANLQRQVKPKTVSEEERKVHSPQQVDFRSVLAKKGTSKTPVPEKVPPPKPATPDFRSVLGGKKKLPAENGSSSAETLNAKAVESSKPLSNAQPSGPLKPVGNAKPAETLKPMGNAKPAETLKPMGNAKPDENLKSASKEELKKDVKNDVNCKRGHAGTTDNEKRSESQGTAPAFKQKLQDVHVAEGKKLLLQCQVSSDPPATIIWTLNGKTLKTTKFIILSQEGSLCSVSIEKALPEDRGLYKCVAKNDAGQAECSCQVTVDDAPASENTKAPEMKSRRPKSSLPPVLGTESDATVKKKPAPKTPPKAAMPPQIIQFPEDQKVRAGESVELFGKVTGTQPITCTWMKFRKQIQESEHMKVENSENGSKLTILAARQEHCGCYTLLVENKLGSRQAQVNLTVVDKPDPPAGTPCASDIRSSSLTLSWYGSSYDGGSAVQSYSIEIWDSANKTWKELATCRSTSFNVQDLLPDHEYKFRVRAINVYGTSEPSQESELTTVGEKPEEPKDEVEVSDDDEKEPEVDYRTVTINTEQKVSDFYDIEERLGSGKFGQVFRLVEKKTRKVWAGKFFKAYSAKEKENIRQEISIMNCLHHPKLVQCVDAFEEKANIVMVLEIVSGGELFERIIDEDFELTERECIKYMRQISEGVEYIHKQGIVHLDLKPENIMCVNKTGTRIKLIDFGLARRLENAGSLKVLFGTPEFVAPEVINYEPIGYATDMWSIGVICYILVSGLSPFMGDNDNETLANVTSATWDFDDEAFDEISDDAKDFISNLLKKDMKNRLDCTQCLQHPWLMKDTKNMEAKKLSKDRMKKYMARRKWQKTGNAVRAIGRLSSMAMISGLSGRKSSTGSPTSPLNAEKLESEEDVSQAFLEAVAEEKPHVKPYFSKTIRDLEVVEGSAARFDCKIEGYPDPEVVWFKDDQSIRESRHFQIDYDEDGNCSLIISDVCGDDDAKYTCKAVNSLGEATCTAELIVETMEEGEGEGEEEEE
SMILES,remaining binding at 1 µM [1] [%],remaining binding at 1 µM [2] [%],remaining binding at 1 µM [3] [%],remaining binding at 1 µM [4] [%],remaining binding at 1 µM [5] [%],remaining binding at 1 µM [6] [%]
"Cc1ccc(C(=O)Nc2ccc(CN3CCN(C)CC3)c(C(F)(F)F)c2)cc1C#Cc1cnc2c(Nc3cnn(C)c3)cccn12 [Example 1, 4-methyl-3-((8-((1-methyl-1H-pyrazol-4-yl)amino)imidazo[1,2-a]pyridin-3-yl)ethynyl)-N-(4-((4-methylpiperazin-1-yl)methyl)-3-(trifluoromethyl)phenyl)benzamide]",0,64,80,7,40,78
"Cc1cn(-c2cc(NC(=O)c3ccc(C)c(C#Cc4cnc5c(Nc6cnn(C)c6)cccn45)c3)cc(C(F)(F)F)c2)cn1 [Example 12, 4-methyl-N-(3-(4-methyl-1H-imidazol-1-yl)-5-(trifluoromethyl)phenyl)-3-((8-((1-methyl-1H-pyrazol-4-yl)amino)imidazo[1,2-a]pyridin-3-yl)ethynyl)benzamide]",8,100,89,70,96,82
Cc1ccc(NC(=O)C2(C(=O)Nc3ccc(F)cc3)CC2)cc1C#Cc1cnc2c(Nc3cnn(C(C)C)c3)cccn12 [Example 78],100,100,100,63,82,83
